# Laboratory results reported in patent US6191124A, “Methanol derivatives for treatment of retroviral infections especially HIV infections” (priority 1997, dated 2001).
# Where two headings read alike, the source gives them in different places. Square brackets hold non-standard residues; d marks the D form. Peptide text beside a SMILES is read from it. * marks the point of attachment. Sta = CC(C)C[C@H](N)[C@@H](O)CC(=O)O; Isovaleryl = CC(C)CC(=O)*
# What was measured:
# HIV-1 protease [1] = target: T1, HIV-1 protease (Human immunodeficiency virus type 1 group M subtype B, UniProt P04585); experiment: HIV protease screening assay (fluorescently labeled biotinylated substrate, streptavidin beads), percent inhibition; type: biochemical; conditions: for inhibition at 1.1 µM: read-out: Protease Inhibition, % Inhibition; for inhibition at 10 µM: read-out: % Protease Inhibition
# Experimental: The HIV protease screening assay is based on fluorescently labeled substrate which can be resolved from nonlabeled cleavage product using special beads coated with streptavidin. The substrate is biotinylated at the amino terminal arginine and fluorescently labeled with fluorescein isothiocynate (FITC) at the carboxyl terminal lysine. This assay has been employed to detect novel, nonpeptidic inhibitors of HIV-1 protease. Substrate (20 μl of 0.2 μM), sample (10 μl of desired concentration), and enzyme (10 μl of 0.1 μM) are added to a 96 well pandex plate. The assay is run in 0.1 M sodium acetate buffer at pH 5.5 in the presence of 1.0 M sodium chloride and 0.05% NP-40 with incubated in the dark for one hour at room temperature. Strepavidin coated polystyrene beads {40 μl of 0.1% (w/v)} are added and the plate is incubated in the dark for an additional half hour. The labeled cleavage product is separated from the unreacted substrate via filtration and is read on the Idexx screen machine. The data are analyzed by appropriate computer algorithms to ascertain percent inhibition values.
# HIV-1 protease [2] = target: T1, HIV-1 protease; experiment: Determination of Ki values, HIV-1 protease; type: biochemical
# Experimental: Determination of Ki values utilizes the same materials and equipment employed for percent inhibition studies. Two-fold serial dilutions are made for a given inhibitor from 2, 3 or 4 starting concentrations with a total of 24, 36 or 48 individual inhibitor concentrations. These dilutions are performed utilizing the BioMek robotics system. The assay consists of 10 μL or 40 nM HIV-1 protease, 10 μL of the various inhibitor concentrations, and 20 μL of 200 μM substrate (40 μL total). The reaction is allowed to proceed for 90 min at room temperature, terminated with 40 μL of avidin beads and processed (supra vide). An inhibitor with a known Ki is run in parallel to verify the validity of the assay. The data is processed utilizing a computer program employing a nonlinear least square analysis of the data to generate the Ki values.
# HIV infection / AIDS = conditions: cited from earlier work
# [3] = test system: viral reverse transcriptase; conditions: cited from earlier work
# HIV = conditions: cited from earlier work
# hepatic glycolysis = conditions: cited from earlier work
# [4] = cited from earlier work
# HIV-1IIIB = HIV-1IIIB replication in human T-cell line H9 (p24 core antigen ELISA); type: cell-based; conditions: human T-cell lines, e.g., H9, infected with HIV-1IIIB
# Experimental: Several compounds of the present invention, such as 2,3-dimethyl-[…]-(2-phenylethyl)imidazo[2,1-b]thiazole-5-methanol were tested in known human cell lines, such as human T-cell lines, e.g., H9, which were infected with HIV-1IIIB. […] The H9 cell line was originally derived from the peripheral blood of a human lymphoma patient and extensively cloned so that the cells were highly susceptible to HIV infection. Virus-free H9 cells were maintained in a humidified 5% CO2 atmosphere at 37° C. in RPMI Complete (RC) medium, which was composed of RPMI 1640 supplemented with 10% heat-inactivated fetal calf serum (FCS), 10 mM Hepes, 2 mM L-glutamine, 100 μg/ml streptomycin, and 100 U/ml penicillin. H9 cultures were split 1:5 twice weekly for a maximum 12-15 times. […]
# HIVIIIb 's ability to replicate efficiently in human T lymphoblastoid cell lines made this strain of HIV the logical choice for protease inhibitor screen. […] The titer, measured at the 50% Tissue Culture Infectious Dose (TCID50), was determined by the Reed-Muench method of statistical analysis to determine the 50% infectivity endpoint.
# The standard acute infectivity assay for the evaluation of the inhibitors of HIV protease was performed in 96 well microplates. […] The amount of HIV p24 core antigen was quantified with an ELISA procedure by following the manufacturers directions (Coulter Diagnostics). […]
# HIV-I protease = conditions: cited from earlier work
# [5] = Table 4, read-out: Protease Inhibition, Ki
smiles,measurement,setting,value
"OC(CCc1ccccc1)c1cnc2sc3c(n12)CCCCCC3 (stereo not drawn) [Example 17, 5,6,7,8,9,10-Hexahydro-α-(2-phenylethyl)cyclooct[d]imidazo-[2,1-b]thiazole-3-methanol]",inhibition at 1.1 µM,HIV-1 protease [1],62%
same,Ki,HIV-1 protease [2]; [5],72 ± 26 nM
"OC(CCCCc1ccccc1)c1cnc2sc3c(n12)CCCCC3 (stereo not drawn) [Example 16, 6,7,8,9-Tetrahydro-α-(4-phenylbutyl)-5-H-cyclohept[d]imidazo[2,1-b]thiazole-3-methanol]",inhibition at 1.1 µM,HIV-1 protease [1],54%
same,Ki,HIV-1 protease [2]; [5],227 ± 42 nM
"OC(CCc1ccccc1)c1cnc2sc3c(n12)CCCCC3 (stereo not drawn) [Example 15, 6,7,8,9-Tetrahydro-α-(2-phenylethyl)-5H-cyclohept[d]imidazo[2,1-b]thiazole-3-methanol]",inhibition at 1.1 µM,HIV-1 protease [1],57%
same,Ki,HIV-1 protease [2]; [5],57 ± 14 nM
"Cc1cn([C@H]2C[C@H](N=[N+]=[N-])[C@@H](CO)O2)c(=O)[nH]c1=O [AZT, 3'-azido-3'-deoxy-thymidine]",decrease of mortality and frequency of opportunistic infections,HIV infection / AIDS,shown to decrease the morality and frequency of opportunistic infections associated with AIDS
same,inhibition of viral reverse transcriptase,[3],known inhibitor of viral reverse transcriptase
O=c1[nH]cnc2c1ncn2[C@H]1CC[C@@H](CO)O1 [ddI],activity against HIV in vitro,HIV,potent activity against HIV in vitro
same,stimulation of hepatic glycolysis,hepatic glycolysis,shown to stimulate hepatic glycolysis leading to irreversible liver damage
same,limiting toxicity,[4]; in vivo,peripheral neuropathy and pancreatitis
"Cc1sc2ncc(C(O)CCc3ccccc3)n2c1C (stereo not drawn) [Example 11, 2,3-Dimethyl-α-(2-phenylethyl)imidazo[2,1-b]thiazole-5-methanol]",% Protease Inhibition,HIV-1 protease [1]; 1.1-1.3 μM (Table 1),96%
same,% Protease Inhibition,HIV-1 protease [1]; 3.3-3.7 μM (Table 1),109%
same,inhibition at 10 µM,HIV-1 protease [1],112%
same,Ki,"HIV-1 protease [2]; Table 1, read-out: Ki",120 nM
same,inhibition of retroviral replication,HIV-1IIIB,found to inhibit retroviral replication
"Cc1sc2ncc(C(O)CCCc3ccccc3)n2c1C (stereo not drawn) [Example 3, 2,3-Dimethyl-α-(3-phenylpropyl)imidazo-[2,1-b]thiazole-5-methanol]",% Protease Inhibition,HIV-1 protease [1]; 1.1-1.3 μM (Table 1),16%
same,% Protease Inhibition,HIV-1 protease [1]; 3.3-3.7 μM (Table 1),72%
same,inhibition at 10 µM,HIV-1 protease [1],115%
same,Ki,"HIV-1 protease [2]; Table 1, read-out: Ki",246 nM
Nc1ccn([C@H]2CC[C@@H](CO)O2)c(=O)n1 [ddC],activity against HIV in vitro,HIV,potent activity against HIV in vitro
same,limiting toxicity,"[4]; humans, clinical",peripheral neuropathy which is reversible at low doses
CC(C)CC(=O)N[C@H](C(=O)N[C@H](C(=O)N[C@@H](CC(C)C)[C@@H](O)CC(=O)N[C@@H](C)C(=O)N[C@@H](CC(C)C)[C@@H](O)CC(=O)O)C(C)C)C(C)C [Pepstatin A] (Isovaleryl-VV[Sta]A[Sta]-OH),inhibition of HIV-I protease,HIV-I protease,inhibitor of HIV-I protease
"Cc1sc2ncc(C(O)/C=C/c3ccccc3)n2c1C (stereo not drawn) [Example 12, 2,3-Dimethyl-α-(2-phenylethenyl)imidazo[2,1-b]thiazole-5-methanol]",% Protease Inhibition,HIV-1 protease [1]; 1.1-1.3 μM (Table 1),63%
same,% Protease Inhibition,HIV-1 protease [1]; 3.3-3.7 μM (Table 1),103%
same,inhibition at 10 µM,HIV-1 protease [1],110%
same,Ki,"HIV-1 protease [2]; Table 1, read-out: Ki",567 ± 282 nM
"OC(CCc1ccccc1)c1cnc2sc3c(n12)CCCC3 (stereo not drawn) [Example 14, 5,6,7,8-Tetrahydro-α-(2-phenylethyl)imidazo[2,1-b]benzothiazole-3-methanol]",inhibition at 1.1 µM,HIV-1 protease [1],73%
same,Ki,HIV-1 protease [2]; [5],68 ± 14 nM
